The source of these data is US20260364168A1, “USE OF PROTEIN KINASE C (PKC) ACTIVATING COMPOUNDS AS AN ADJUVANT” (priority 2022, published 2026).

One data set relates to NFκB. The data set is described as follows: NFκB luciferase reporter gene assay in HeLa-NFκB luciferase reporter cell line. Format: cell-based. The conditions noted are these: 16 h; for EC50: 37 °C, luciferase/CTG normalized, read-out: NFκB-luc HeLa cells EC50. As to the method: The PKC activator compounds were evaluated for their effect on NFκB expression using a luciferase reporter gene expression system. (The indicators “K-101,” “K101” and “K-101A” may be used interchangeably in this disclosure and appended figures).
A HeLa-NFκB luciferase reporter cell line (Wuxi Biology) was used to assess a group of PKC activator compounds for their ability to activate NFκB-driven transcription. Two sets of cells at 20000 cells/well were plated, grown overnight, and then treated for 16 h at 37 °C with DMSO, 6 doses of each compound, or TNF-α (final concentration of 10 ng/mL, positive control) in triplicates. One set of cells was assayed for luciferase activity (Promega, Cat #E1500) and the other set was assayed to determine the number of viable cells (for cell number normalization) using CellTiter-Glo (CTG) kit (Promega, Cat #G7570) according to manufacture's procedures. Normalized data (luciferase value/CTG value) were analyzed using GraphPad Prism5 to calculate EC50 for each compound (see Table 3).
A general note: In a reporter assay the amount or activity of a reporter protein is the signal.

A further data set deals with human PBMC cells. Kind of data set: cytokine/chemokine gene expression (TaqMan) in human PBMC. The conditions noted are these: 4 h; for fold induction at 0.01 µM / fold induction at 0.03 µM / fold induction at 0.1 µM / fold induction at 1 µM: Homo sapiens, PBMC.
Setting [1] is: 0.03 μM, vs DMSO, 240 min, 0.03 µM.
Setting [2] is: 0.10 μM, vs DMSO, 240 min, 0.1 µM.

Like-named read-outs stand apart in the source and are kept apart here.

Method for human PBMC cells: Materials and methods: 100 million frozen human PBMC cells were purchased from Allcells (100 million/vial). The cells were thawed and recovered for one day before 1.5-1.8 million cells in 900 μl RPMI1640 with 10% heat-inactivated FBS were seeded in each well of 24-well plates. Various compounds in DMSO stock (500×) were diluted 50-fold with the same media to make 10× compound stock for most compounds. 1 μL of 5 mg/mL PMA was diluted to 99 μL of the media to make 50 μg/mL PMA. For PMA with ionomycin treatment condition, 1.5 μL of 50 μg/mL PMA and 3 μL of 500 μg/mL ionomycin were added to 145.5 μL of the media to make 10× compound stock. Sources of the compounds are as follows: PMA from Abcam (Abcam #ab120297); Ionomycin from Sigma (Sigma #I0634); Resiquimod from Sellect Chem. (Selleckchem #S8133); and LPS from Sigma (Sigma #L6143).
Each treatment condition was performed in duplicates. After treatment, mRNA was extracted from cells and samples from duplicates were combined for TaqMan gene expression assays (ThermoFisher) in triplicates. Expression of 19 genes (IL-1β, IL-2, IL-4, IL-6, IL-8, IL-10, IL-13, IL-18, IL-12p70/IL-12A, IL-12p40/IL-12B, IFN-α, IFN-γ, GM-CSF/CSF2, CCL2/MCP-1, MIP1a/CCL3, TNF-α, MX1, OAS1, ISG15) along with two housekeeping gene controls, 18S and GAPDH, was determined. Target gene expression in each sample was determined by relative quantification (RQ) using the comparative Ct (ΔΔCT) method. This method measures the Ct difference (ΔCT) between target gene and the housekeeping genes (18S & GAPDH), then compares the ΔCT values of treated samples to DMSO-treated control samples. The mean ΔCT value of the DMSO-treated control from two independent DMSO-treated control samples was used. The relative expression level of target gene was calculated by using the equation:
relative expression=2^−ΔΔCT

Regarding `CC1=C[C@H]2[C@@]3(O)[C@H](C)C[C@]4(OC(=O)[C@@H](N)Cc5ccccc5)[C@H]([C@@H]3C=C(CO)C[C@]2(O)C1=O)C4(C)C`, the EC50 (usually the concentration needed to bring the measured effect to its halfway point) with NFκB (Homo sapiens, HeLa) is 200 to 600 nM.
For the compound `CC1=C[C@H]2[C@@]3(O)[C@H](C)C[C@]4(OC(=O)C(N)CCCCCCc5ccccc5)[C@H]([C@@H]3C=C(CO)C[C@]2(O)C1=O)C4(C)C` (stereo partly drawn), the “IL-2 gene relative expression” value with human PBMC cells (setting [1]) turned out to be 3.59. Besides, the “IL-13 gene relative expression” value with human PBMC cells (setting [1]) stood at 5.87; in the data set with human PBMC cells (setting [2]), 121.59. Also, the “IL-18 gene relative expression” value in the data set on human PBMC cells (setting [1]) is 0.19. Also, the “TNF-α gene relative expression” value with human PBMC cells (setting [1]) turned out to be 2.91. For the same compound, the “CCL2 gene relative expression” value in the data set on human PBMC cells (setting [2]) stood at 0.40. Further, in the data set with human PBMC cells (setting [2]), the “GM-CSF gene relative expression” value is 21.01. Moreover, the “IFNγ gene relative expression” value in the data set with human PBMC cells (setting [2]) is on record as 11.33. The “IL-6 gene relative expression” value in the data set with human PBMC cells (setting [2]) was found to be 6.15. Further, the “IL-10 gene relative expression” value in the data set on human PBMC cells (setting [2]) was determined as 0.12. In addition, in the data set on human PBMC cells (setting [2]), the “MIP1a (CCL3) gene relative expression” value stood at 4.95. In addition, the fold induction at 0.01 µM in the data set on human PBMC cells (read-out: CCL2 gene relative expression, 0.01 μM, 4 h, vs DMSO) was 1.81; in the data set with human PBMC cells (read-out: GM-CSF gene relative expression, 0.01 μM, 4 h, vs DMSO), 1; in the data set with human PBMC cells (read-out: IFN-α gene relative expression, 0.01 μM, 4 h, vs DMSO) it was 0.73; in the data set with human PBMC cells (read-out: IFNγ gene relative expression, 0.01 μM, 4 h, vs DMSO), 1.46; in the data set with human PBMC cells (read-out: IL-1β gene relative expression, 0.01 μM, 4 h, vs DMSO) it was 0.38; in the data set on human PBMC cells (read-out: IL-2 gene relative expression, 0.01 μM, 4 h, vs DMSO), 1.32. Also, the fold induction at 0.01 µM with human PBMC cells (read-out: IL-6 gene relative expression, 0.01 μM, 4 h, vs DMSO) amounted to 0.57; in the data set with human PBMC cells (read-out: IL-8 gene relative expression, 0.01 μM, 4 h, vs DMSO), 0.44; with human PBMC cells (read-out: IL-10 gene relative expression, 0.01 μM, 4 h, vs DMSO), 1.59; in the data set on human PBMC cells (read-out: IL-12p40 gene relative expression, 0.01 μM, 4 h, vs DMSO), 0.34; with human PBMC cells (read-out: IL-12p70 gene relative expression, 0.01 μM, 4 h, vs DMSO), 1.05; with human PBMC cells (read-out: IL-13 gene relative expression, 0.01 μM, 4 h, vs DMSO) it was 0.37. Further, the fold induction at 0.01 µM is 0.63 in the data set on human PBMC cells (read-out: IL-18 gene relative expression, 0.01 μM, 4 h, vs DMSO); 0.94 with human PBMC cells (read-out: ISG15 gene relative expression, 0.01 μM, 4 h, vs DMSO); 1.29 in the data set on human PBMC cells (read-out: MIP1a (CCL3) gene relative expression, 0.01 μM, 4 h, vs DMSO); 0.77 with human PBMC cells (read-out: MX1 gene relative expression, 0.01 μM, 4 h, vs DMSO); 0.85 in the data set with human PBMC cells (read-out: OAS1 gene relative expression, 0.01 μM, 4 h, vs DMSO); 1.34 in the data set with human PBMC cells (read-out: TNF-α gene relative expression, 0.01 μM, 4 h, vs DMSO). In addition, the fold induction at 0.03 µM in the data set with human PBMC cells (read-out: CCL2 gene relative expression, 0.03 μM, 4 h, vs DMSO) worked out at 6.53; with human PBMC cells (read-out: GM-CSF gene relative expression, 0.03 μM, 4 h, vs DMSO) it was 1.88; with human PBMC cells (read-out: IFN-α gene relative expression, 0.03 μM, 4 h, vs DMSO), 1.21; in the data set on human PBMC cells (read-out: IFNγ gene relative expression, 0.03 μM, 4 h, vs DMSO), 1.49; in the data set on human PBMC cells (read-out: IL-1β gene relative expression, 0.03 μM, 4 h, vs DMSO) it was 0.94; in the data set on human PBMC cells (read-out: IL-4 gene relative expression, 0.03 μM, 4 h, vs DMSO), 1.19. Besides, the fold induction at 0.03 µM in the data set on human PBMC cells (read-out: IL-6 gene relative expression, 0.03 μM, 4 h, vs DMSO) amounted to 1.23; with human PBMC cells (read-out: IL-8 gene relative expression, 0.03 μM, 4 h, vs DMSO), 0.66; in the data set on human PBMC cells (read-out: IL-10 gene relative expression, 0.03 μM, 4 h, vs DMSO) it was 0.86; with human PBMC cells (read-out: IL-12p40 gene relative expression, 0.03 μM, 4 h, vs DMSO), 0.38; with human PBMC cells (read-out: IL-12p70 gene relative expression, 0.03 μM, 4 h, vs DMSO), 0.96; with human PBMC cells (read-out: ISG15 gene relative expression, 0.03 μM, 4 h, vs DMSO), 0.97. Also, the fold induction at 0.03 µM amounted to 1.67 in the data set on human PBMC cells (read-out: MIP1a (CCL3) gene relative expression, 0.03 μM, 4 h, vs DMSO); 0.65 with human PBMC cells (read-out: MX1 gene relative expression, 0.03 μM, 4 h, vs DMSO); 0.55 with human PBMC cells (read-out: OAS1 gene relative expression, 0.03 μM, 4 h, vs DMSO). Besides, the fold induction at 0.1 µM turned out to be 0.8 in the data set with human PBMC cells (read-out: IFN-α gene relative expression, 0.10 μM, 4 h, vs DMSO); 3 with human PBMC cells (read-out: IL-1β gene relative expression, 0.10 μM, 4 h, vs DMSO); 4.98 in the data set on human PBMC cells (read-out: IL-2 gene relative expression, 0.10 μM, 4 h, vs DMSO); 2.78 with human PBMC cells (read-out: IL-4 gene relative expression, 0.10 μM, 4 h, vs DMSO); 0.44 with human PBMC cells (read-out: IL-8 gene relative expression, 0.10 μM, 4 h, vs DMSO); 0.74 in the data set with human PBMC cells (read-out: IL-12p70 gene relative expression, 0.10 μM, 4 h, vs DMSO). Moreover, the fold induction at 0.1 µM in the data set with human PBMC cells (read-out: IL-18 gene relative expression, 0.10 μM, 4 h, vs DMSO) came out at 0.05; in the data set on human PBMC cells (read-out: ISG15 gene relative expression, 0.10 μM, 4 h, vs DMSO), 1.57; in the data set with human PBMC cells (read-out: MX1 gene relative expression, 0.10 μM, 4 h, vs DMSO) it was 1.06; in the data set on human PBMC cells (read-out: OAS1 gene relative expression, 0.10 μM, 4 h, vs DMSO), 0.71; with human PBMC cells (read-out: TNF-α gene relative expression, 0.10 μM, 4 h, vs DMSO), 6.52. Besides, the half-maximal effective concentration (EC50) in the data set with NFκB was in the range of 1 to 10 nM.
On to `CCOCc1nc2c(N)nc3ccccc3c2n1CC(C)(C)O` [Resiquimod, reference compound], for which the “IL-6 induction compared to DMSO control” value in the data set with human PBMC cells is above 400 fold. For the same compound, the “IL-12p40 expression (in words)” value in the data set on human PBMC cells is listed as “highly induced”. The “ISG15 expression (in words)” value in the data set on human PBMC cells is recorded as “highly induced”. Moreover, the “MX1 expression (in words)” value in the data set with human PBMC cells is “highly induced”. Moreover, the “OAS1 expression (in words)” value with human PBMC cells was “highly induced”. Besides, the fold induction at 1 µM is 3.73 in the data set with human PBMC cells (read-out: CCL2 gene relative expression); 8.79 with human PBMC cells (read-out: GM-CSF gene relative expression); 1.47 in the data set with human PBMC cells (read-out: IFN-α gene relative expression); 1.28 in the data set on human PBMC cells (read-out: IFNγ gene relative expression); 102 in the data set with human PBMC cells (read-out: IL-1β gene relative expression); 1.21 in the data set with human PBMC cells (read-out: IL-2 gene relative expression). The fold induction at 1 µM in the data set on human PBMC cells (read-out: IL-6 gene relative expression) turned out to be 487; in the data set on human PBMC cells (read-out: IL-8 gene relative expression), 9.87; in the data set on human PBMC cells (read-out: IL-10 gene relative expression), 5.65; in the data set with human PBMC cells (read-out: IL-12p40 gene relative expression) it was 786; with human PBMC cells (read-out: IL-12p70 gene relative expression), 2.48; in the data set on human PBMC cells (read-out: IL-13 gene relative expression) it was 3.52. The fold induction at 1 µM with human PBMC cells (read-out: IL-18 gene relative expression) was determined as 1.33; with human PBMC cells (read-out: ISG15 gene relative expression), 14.8; in the data set on human PBMC cells (read-out: MIP1a (CCL3) gene relative expression) it was 47.7; in the data set with human PBMC cells (read-out: MX1 gene relative expression) it was 17; with human PBMC cells (read-out: OAS1 gene relative expression) it was 12.7; in the data set on human PBMC cells (read-out: TNF-α gene relative expression) it was 7.38.
With TNF-α [reference compound], in the data set on NFκB (10 ng/mL), the “activation of NFκB luciferase reporter gene expression above DMSO control” value was around 10 fold.
